Patent US12173088B2, “Anti-microbial peptides” (priority 2018, dated 2024)
Values after ≈ are worked out from the molar mass of the structure shown. Where two headings read alike, the source gives them in different places. Peptide text beside a SMILES is read from it.

Assays:
[1] = test system: P. aeruginosa E411-17; assay: microbe, parasite or virus in culture; assay type: cell-based, Pseudomonas aeruginosa
Procedure, shortened: (§1)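 Broth microdilution: log-phase cultures in tryptic soy broth diluted to OD600 0.001, exposed to two-fold diluted peptides at 37° C overnight, growth read at 630 nm. Medium effects on S. aureus USA300 tested with up to 200 mM NaCl, 2 mM CaCl2, 5-10% human serum, mouse plasma, fluids or tissue homogenate supernatants.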

[2] = test system: E. coli E423-17; assay: microbe, parasite or virus in culture; assay type: cell-based, Escherichia coli
Procedure, shortened: as §1

[3] = test system: K. pneumoniae E406-17; assay: microbe, parasite or virus in culture; assay type: cell-based, Klebsiella pneumoniae
Procedure, shortened: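 Broth microdilution in tryptic soy broth: log-phase cultures (OD600 ≈0.5) diluted to OD600 0.001, given two-fold peptide dilutions, incubated overnight at 37° C. Growth read at 630 nm.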

[4] = test system: E. faecium V286-17 (VRE); assay: microbe, parasite or virus in culture; assay type: cell-based, Enterococcus faecium
Procedure, shortened: as §1

[5] = In vivo toxicity after i.p. injection; set-up: species or system mice; settings: for Animal death: 10, 20, and 30 mg/kg i.p., five-day experiment; for Mobility: higher peptide doses
Protocol: Because DFT561 had crossed multiple in vitro barriers (Table 5), its in vivo toxicity and efficacy was tested. A well-established neutropenic mouse model was used, which is often utilized to evaluate the efficacy of antibiotics and peptide mimics (Ambrose, et al. (2012) Clin. Infect. Dis., 54(3):S220-8; Radzishevsky, et al. (2007) Nat. Biotechnol., 25:657-659). In this model, the effect of immune cells on bacterial killing is minimized via two injections of cyclophosphamide before infection (FIG. 5). To evaluate the safety of the peptide in vivo, the toxicity of DFT561 injected intraperitoneally (i.p.) was compared at […] per mouse. […] In addition, alanine transaminase normally resides in serum and tissues but can be released after liver injury. Differences in a quantitative alanine transaminase assay of liver homogenates from mice treated at 0, 10, and 20 mg/kg was not observed.
Neutropenic mice are widely accepted for systemic efficacy evaluation of antibiotics (Zhao, et al. (2016) Bioorg. Med. Chem. 24:6390-6400; Craig, et al. (1991) J. Antimicrob. Chemother., 27:29-40). This model enables better evaluation of compound potency by minimizing the bacterial clearance effect of the immune system. Using this model, the efficacy of horine against S. aureus USA300 and verine against K. pneumonia E406-17 was tested. C57BL/6 mice were made neutropenic by two injections of cyclophosphamide intraperitoneally (i.p.). The acute toxicity of horine and verine was investigated by i.p. injecting them into mice at 10, 20, and 30 mg/kg body weight.

[6] = Hemolytic assay; assay type: cell-based, human; settings: human
Procedure, shortened: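 Washed hRBCs (2% v/v) exposed to peptide for 1 h at 37 °C, then centrifuged and hemoglobin in supernatant read at 545 nm. Lysis normalized to Triton X-100 (2% or 1%; 100%) and PBS (0%); HL50 is the peptide concentration giving 50% lysis, and CSI is HL50/MIC.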

[7] = test system: A. baumannii B26-16; assay: microbe, parasite or virus in culture; assay type: cell-based, Acinetobacter baumannii
Procedure, shortened: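 Broth microdilution in tryptic soy broth: log-phase cultures diluted to 0.001 OD600 and exposed to peptide dilutions overnight at 37 °C, growth read at 630 nm. For S. aureus USA300, medium effects tested at pH 6.8, 7.2 and 8.0, with 150 mM NaCl, or with 5–10% human serum, mouse plasma or peritoneal fluid.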

[8] = E411-17, read-out: MIC P. aeruginosa E411-17
[9] = E423-17, read-out: MIC E. coli E423-17
[10] = E406-17, read-out: MIC K. pneumoniae E406-17

Question: With CC(C)C[C@H](NC(=O)[C@H](CC(C)C)NC(=O)[C@H](CCCCN)NC(=O)[C@H](CC(C)C)NC(=O)CNC(=O)[C@H](CC(C)C)NC(=O)[C@H](CO)NC(=O)[C@H](CC(C)C)NC(=O)[C@H](CC(C)C)NC(=O)[C@H](CC(C)C)NC(=O)[C@H](CCCCN)NC(=O)[C@H](CC(C)C)NC(=O)CN)C(N)=O [DFT561, GLKLLLSLGLKLL] (H-GLKLLLSLGLKLL-NH2; N-terminus and C-terminus assumed) as the compound, how does the MIC [1, 8] read?
Answer: >50 µM

Question: What about the MIC [2, 9] of the same compound?
Answer: >50 µM

Question: And the MIC [3, 10]?
Answer: >50 µM

Question: What about the “MIC E. faecium V286-17 (VRE)” value ([4]; V286-17 (VRE)) of the same compound?
Answer: 3.1 to 6.25 µM

Question: And the “Differences in alanine transaminase assay of liver homogenates” value ([5]; 0, 10, and 20 mg/kg)?
Answer: not observed

Question: What about the “Toxicity (conclusion)” value ([5]; 5 mg/kg) of the same compound?
Answer: not toxic

Question: What about the Behaviour of mice ([5]; 10 mg/kg i.p.) of the same compound?
Answer: behaved normal

Question: And the Weight losses ([5]; 10, 20, 40 mg/kg i.p.)?
Answer: statistically insignificant

Question: What about the Behaviour of mice ([5]; 20 or 40 mg/kg i.p.) of the same compound?
Answer: reduced activity for 30 minutes

Question: And the HC50 at 1 h ([6]; human red blood cells, 2% (v/v))?
Answer: > 300 µM

Question: With CC(C)C[C@H](NC(=O)[C@H](Cc1c[nH]c2ccccc12)NC(=O)[C@H](Cc1c[nH]c2ccccc12)NC(=O)[C@@H](N)Cc1c[nH]c2ccccc12)C(=O)N[C@@H](CCCNC(=N)N)C(=O)N[C@@H](CCCNC(=N)N)C(=O)N[C@@H](CCCNC(=N)N)C(=O)N[C@@H](Cc1c[nH]c2ccccc12)C(N)=O [Horine, WWWLRRRW] (H-WWWLRRRW-NH2; N-terminus and C-terminus assumed) as the compound, how does the MIC [1, 8] read?
Answer: >32 µM

Question: What about the MIC [2, 9] of the same compound?
Answer: >32 µM

Question: And the MIC ([7]; B26-16, read-out: MIC A. baumannii B26-16)?
Answer: 32 µM (≈ 43 µg/mL)

Question: And the MIC [3, 10]?
Answer: >32 µM

Question: What about the MIC ([4]; V286-17 (VRE), read-out: MIC E. faecium V286-17 (VRE)) of the same compound?
Answer: 2 µM (≈ 2.69 µg/mL)

Question: And the Animal death [5]?
Answer: no animal death

Question: And the Mobility [5]?
Answer: initial short-term reduced mobility

Question: What about the HC50 at 1 hour [6] of the same compound?
Answer: > 200 µM

Question: Which MIC ([1]; Pseudomonas aeruginosa, E41117, read-out: MIC P. aeruginosa E411-17) does the source give for CN[C@H](CC(C)C)C(=O)N[C@H]1C(=O)N[C@@H](CC(N)=O)C(=O)N[C@H]2C(=O)N[C@H]3C(=O)N[C@H](C(=O)N[C@H](C(=O)O)c4cc(O)cc(O)c4-c4cc3ccc4O)[C@H](O)c3ccc(c(Cl)c3)Oc3cc2cc(c3O[C@@H]2O[C@H](CO)[C@@H](O)[C@H](O)[C@H]2O[C@H]2C[C@](C)(N)[C@H](O)[C@H](C)O2)Oc2ccc(cc2Cl)[C@H]1O [Vancomycin] here?
Answer: > 8 µM

Question: And the MIC ([2]; Escherichia coli, E42317, read-out: MIC E. coli E423-17)?
Answer: > 8 µM

Question: What about the MIC ([7]; Acinetobacter baumannii, B2616, read-out: MIC A. baumannii B26-16) of the same compound?
Answer: > 8 µM

Question: And the MIC ([3]; Klebsiella pneumoniae, E40617, read-out: MIC K. pneumoniae E406-17)?
Answer: > 8 µM

Question: And the MIC ([4]; Enterococcus faecium, VRE, read-out: MIC E. faecium V286-17 (VRE), Table 7)?
Answer: ≥ 12.5 µM

Question: And the MIC ([4]; Enterococcus faecium, VRE, read-out: MIC E. faecium V286-17 (VRE), Table 14)?
Answer: > 8 µM

Question: What does the source list for CC(C)[C@H](NC(=O)[C@H](Cc1c[nH]c2ccccc12)NC(=O)[C@H](Cc1c[nH]c2ccccc12)NC(=O)[C@H](Cc1c[nH]c2ccccc12)NC(=O)[C@H](Cc1c[nH]c2ccccc12)NC(=O)[C@H](CCCNC(=N)N)NC(=O)[C@H](CCCNC(=N)N)NC(=O)[C@@H](N)CCCNC(=N)N)C(N)=O [Verine, RRRWWWWV] (H-RRRWWWWV-NH2; N-terminus and C-terminus assumed)?
Answer: MIC P. aeruginosa 411-17 ([1]; Table 12): 12.5 µM (≈ 16.6 µg/mL); MIC P. aeruginosa E411-17 ([1]; Table 14): 4 to 8 µM; MIC ([2]; Table 14, read-out: MIC E. coli E423-17): 2 µM (≈ 2.66 µg/mL); MIC ([7]; Table 14, read-out: MIC A. baumannii B26-16): 8 µM (≈ 10.6 µg/mL); MIC K. pneumonia 406-17 ([3]; Table 12): 6.25 µM (≈ 8.31 µg/mL); MIC ([3]; Table 14, read-out: MIC K. pneumoniae E406-17): 8 µM (≈ 10.6 µg/mL); MIC ([4]; Table 14, read-out: MIC E. faecium V286-17 (VRE)): 2 µM (≈ 2.66 µg/mL); Animal death [5]: no animal death; Mobility [5]: initial short-term reduced mobility; HC50 at 1 hour ([6]; 2% hRBCs, read-out: LC50): > 200 µM
